#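 1) Cells in 96-well plates. 2) Compound, 48 h, 5 concentrations. 3) Linear interpolation between surrounding doses. 4) Unreached endpoint = highest concentration. At the GI50, growth is halved. TGI: total growth inhibition.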
# Assays:
# Experiment in all cases: DTP human tumour cell line panel, 48 h
# OVCAR-8 ovarian = test system: OVCAR-8 ovarian
# NCI-H522 lung = test system: NCI-H522 lung
# HOP-92 NSCLC = test system: HOP-92 NSCLC
# SF-295 CNS = test system: SF-295 CNS
# RXF 393 renal = test system: RXF 393 renal
# MCF7 breast = test system: MCF7 breast
# MDA-MB-435 = test system: MDA-MB-435
# SK-MEL-5 melanoma = test system: SK-MEL-5 melanoma
# MDA-MB-231 breast = test system: MDA-MB-231 breast
# 786-0 renal = test system: 786-0 renal
# SW-620 colon = test system: SW-620 colon
# T-47D breast = test system: T-47D breast
# KM12 colon = test system: KM12 colon
# SNB-19 CNS = test system: SNB-19 CNS
# U251 CNS = test system: U251 CNS
# SF-539 CNS = test system: SF-539 CNS
# ACHN renal = test system: ACHN renal
# HS 578T breast = test system: HS 578T breast
# NCI-H460 lung = test system: NCI-H460 lung
# UACC-62 melanoma = test system: UACC-62 melanoma
# NCI-H23 lung = test system: NCI-H23 lung
# PC-3 prostate = test system: PC-3 prostate
# SK-MEL-28 melanoma = test system: SK-MEL-28 melanoma
# HCC-2998 colon = test system: HCC-2998 colon
# OVCAR-4 ovarian = test system: OVCAR-4 ovarian
# BT-549 breast = test system: BT-549 breast
# HCT-15 colon = test system: HCT-15 colon
# K-562 leukemia = test system: K-562 leukemia
# RPMI-8226 leukemia = test system: RPMI-8226 leukemia
# SF-268 CNS = test system: SF-268 CNS
# CAKI-1 renal = test system: CAKI-1 renal
# HOP-62 NSCLC = test system: HOP-62 NSCLC
# SR leukemia = test system: SR leukemia
# LOX IMVI melanoma = test system: LOX IMVI melanoma
# EKVX NSCLC = test system: EKVX NSCLC
# A549 NSCLC = test system: A549 NSCLC
# UACC-257 melanoma = test system: UACC-257 melanoma
# TK-10 renal = test system: TK-10 renal
# SN12C renal = test system: SN12C renal
# NCI/ADR-RES ovarian = test system: NCI/ADR-RES ovarian
# IGROV1 ovarian = test system: IGROV1 ovarian
# SK-MEL-2 melanoma = test system: SK-MEL-2 melanoma
# M14 melanoma = test system: M14 melanoma
# HL-60(TB) leukemia = test system: HL-60(TB) leukemia
# OVCAR-3 ovarian = test system: OVCAR-3 ovarian
# UO-31 renal = test system: UO-31 renal
# DU-145 prostate = test system: DU-145 prostate
# COLO 205 colon = test system: COLO 205 colon
# OVCAR-5 ovarian = test system: OVCAR-5 ovarian
# HCT-116 colon = test system: HCT-116 colon
structure (smiles),measurement,setting,value
CCC(CC)c1nc(Nc2cccc(OC)c2)c2ccccc2n1,GI50,OVCAR-8 ovarian,8.85 µM
same,TGI,OVCAR-8 ovarian,17.9 µM
same,GI50,NCI-H522 lung,7.51 µM
same,TGI,NCI-H522 lung,15.3 µM
same,GI50,HOP-92 NSCLC,2.86 µM
same,TGI,HOP-92 NSCLC,9.98 µM
same,GI50,SF-295 CNS,6.55 µM
same,TGI,SF-295 CNS,12.9 µM
same,GI50,RXF 393 renal,7.29 µM
same,TGI,RXF 393 renal,14.7 µM
same,GI50,MCF7 breast,10.6 µM
same,TGI,MCF7 breast,> 50 µM
same,GI50,MDA-MB-435,6.92 µM
same,TGI,MDA-MB-435,13.4 µM
same,GI50,SK-MEL-5 melanoma,6.07 µM
same,TGI,SK-MEL-5 melanoma,12.3 µM
same,GI50,MDA-MB-231 breast,6.57 µM
same,TGI,MDA-MB-231 breast,12.9 µM
same,GI50,786-0 renal,11 µM
same,TGI,786-0 renal,18.2 µM
same,GI50,SW-620 colon,7.47 µM
same,TGI,SW-620 colon,14.1 µM
same,GI50,T-47D breast,0.005 µM
same,TGI,T-47D breast,0.234 µM
same,GI50,KM12 colon,6.11 µM
same,TGI,KM12 colon,12.3 µM
same,GI50,SNB-19 CNS,6.86 µM
same,TGI,SNB-19 CNS,13.3 µM
same,GI50,U251 CNS,7.98 µM
same,TGI,U251 CNS,14.7 µM
same,GI50,SF-539 CNS,8.29 µM
same,TGI,SF-539 CNS,15.1 µM
same,GI50,ACHN renal,7.71 µM
same,TGI,ACHN renal,14.4 µM
same,GI50,HS 578T breast,7.71 µM
same,TGI,HS 578T breast,15.4 µM
same,GI50,NCI-H460 lung,12.9 µM
same,TGI,NCI-H460 lung,38.4 µM
same,GI50,UACC-62 melanoma,7.28 µM
same,TGI,UACC-62 melanoma,13.8 µM
same,GI50,NCI-H23 lung,8.27 µM
same,TGI,NCI-H23 lung,15.1 µM
same,GI50,PC-3 prostate,6.86 µM
same,TGI,PC-3 prostate,13.3 µM
same,GI50,SK-MEL-28 melanoma,6.72 µM
same,TGI,SK-MEL-28 melanoma,13.1 µM
same,GI50,HCC-2998 colon,7.68 µM
same,TGI,HCC-2998 colon,14.3 µM
same,GI50,OVCAR-4 ovarian,6.95 µM
same,TGI,OVCAR-4 ovarian,13.6 µM
same,GI50,BT-549 breast,7.19 µM
same,TGI,BT-549 breast,13.7 µM
same,GI50,HCT-15 colon,7.45 µM
same,TGI,HCT-15 colon,14.1 µM
same,GI50,K-562 leukemia,4.3 µM
same,TGI,K-562 leukemia,> 50 µM
same,GI50,RPMI-8226 leukemia,5.41 µM
same,TGI,RPMI-8226 leukemia,11.3 µM
same,GI50,SF-268 CNS,11.5 µM
same,TGI,SF-268 CNS,29.5 µM
same,GI50,CAKI-1 renal,5.9 µM
same,TGI,CAKI-1 renal,12 µM
same,GI50,HOP-62 NSCLC,8.06 µM
same,TGI,HOP-62 NSCLC,14.8 µM
same,GI50,SR leukemia,9.81 µM
same,TGI,SR leukemia,24.2 µM
same,GI50,LOX IMVI melanoma,6.43 µM
same,TGI,LOX IMVI melanoma,12.7 µM
same,GI50,EKVX NSCLC,8.05 µM
same,TGI,EKVX NSCLC,14.8 µM
same,GI50,A549 NSCLC,7.11 µM
same,TGI,A549 NSCLC,13.6 µM
same,GI50,UACC-257 melanoma,8.06 µM
same,TGI,UACC-257 melanoma,14.8 µM
same,GI50,TK-10 renal,10.7 µM
same,TGI,TK-10 renal,17.9 µM
same,GI50,SN12C renal,7.35 µM
same,TGI,SN12C renal,13.9 µM
same,GI50,NCI/ADR-RES ovarian,10.3 µM
same,TGI,NCI/ADR-RES ovarian,17.4 µM
same,GI50,IGROV1 ovarian,10.2 µM
same,TGI,IGROV1 ovarian,19.2 µM
same,GI50,SK-MEL-2 melanoma,7.11 µM
same,TGI,SK-MEL-2 melanoma,15.2 µM
same,GI50,M14 melanoma,11.3 µM
same,TGI,M14 melanoma,18.5 µM
same,GI50,HL-60(TB) leukemia,12 µM
same,TGI,HL-60(TB) leukemia,> 50 µM
same,GI50,OVCAR-3 ovarian,5.9 µM
same,TGI,OVCAR-3 ovarian,12 µM
same,GI50,UO-31 renal,6.95 µM
same,TGI,UO-31 renal,13.4 µM
same,GI50,DU-145 prostate,6.48 µM
same,TGI,DU-145 prostate,12.8 µM
same,GI50,COLO 205 colon,11 µM
same,TGI,COLO 205 colon,18.3 µM
same,GI50,OVCAR-5 ovarian,9.68 µM
same,TGI,OVCAR-5 ovarian,16.7 µM
same,GI50,HCT-116 colon,8.31 µM
same,TGI,HCT-116 colon,15.1 µM

# Reference: PubChem BioAssay (NCI)
